Measurements from PubChem BioAssay AID1963980 (Molecular Pharmacology Branch, DTP, NCI, 2024).
Values belong to the molecule of their own block, whether it stands above or below them.

Test system: 475296-252-R-J1-PDC spheroid viability
Assay: Anticancer human tumor 475296-252-R-J1-PDC patient-derived rectal carcinoma cell line growth inhibition [PI3K]
Conditions: spheroids with HUVEC and MSC; for IC50: curve of first compound; for viability, T/C: stronger effect = lower value
In short: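 Spheroid viability read-out. Co-cultures contained the tumor line plus HUVEC and human MSCs. Each agent was paired with a PI3K inhibitor (inavolisib, alpelisib, duvelisib, copanlisib) across half-log dilutions starting at clinical Cmax, or at 10 microM when Cmax was unknown.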

[1] = second compound 0.00316 µM, first compound 0.0316 µM
[2] = second compound 0.00316 µM, first compound 0.1 µM
[3] = second compound 0.00316 µM, first compound 0.316 µM
[4] = second compound 0.00316 µM, first compound 1 µM
[5] = second compound 0.00316 µM, first compound 3.16 µM
[6] = second compound 0.00316 µM, first compound 10 µM
[7] = second compound 0.01 µM, first compound 0.0316 µM
[8] = second compound 0.01 µM, first compound 0.1 µM
[9] = second compound 0.01 µM, first compound 0.316 µM
[10] = second compound 0.01 µM, first compound 1 µM
[11] = second compound 0.01 µM, first compound 3.16 µM
[12] = second compound 0.01 µM, first compound 10 µM
[13] = second compound 0.0316 µM, first compound 0.0316 µM
[14] = second compound 0.0316 µM, first compound 0.1 µM
[15] = second compound 0.0316 µM, first compound 0.316 µM
[16] = second compound 0.0316 µM, first compound 1 µM
[17] = second compound 0.0316 µM, first compound 3.16 µM
[18] = second compound 0.0316 µM, first compound 10 µM
[19] = second compound 0.1 µM, first compound 0.0316 µM
[20] = second compound 0.1 µM, first compound 0.1 µM
[21] = second compound 0.1 µM, first compound 0.316 µM
[22] = second compound 0.1 µM, first compound 1 µM
[23] = second compound 0.1 µM, first compound 3.16 µM
[24] = second compound 0.1 µM, first compound 10 µM
[25] = second compound 0.316 µM, first compound 0.0316 µM
[26] = second compound 0.316 µM, first compound 0.1 µM
[27] = second compound 0.316 µM, first compound 0.316 µM
[28] = second compound 0.316 µM, first compound 1 µM
[29] = second compound 0.316 µM, first compound 3.16 µM
[30] = second compound 0.316 µM, first compound 10 µM
[31] = second compound 1 µM, first compound 0.0316 µM
[32] = second compound 1 µM, first compound 0.1 µM
[33] = second compound 1 µM, first compound 0.316 µM
[34] = second compound 1 µM, first compound 1 µM
[35] = second compound 1 µM, first compound 3.16 µM
[36] = second compound 1 µM, first compound 10 µM
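Further: spheroids exposed to agents for seven days before readout.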

IC50 (second compound 0.00316 µM): > 10 µM
IC50 (second compound 0.01 µM): > 10 µM
IC50 (second compound 0.0316 µM): > 10 µM
IC50 (second compound 0.1 µM): > 10 µM
IC50 (second compound 0.316 µM): > 10 µM
IC50 (second compound 1 µM): 6.18 µM
Structure (SMILES): CC(C)NCC(C(=O)N1CCN(c2ncnc3c2C(C)CC3O)CC1)c1ccc(Cl)cc1 (stereo not drawn) + COc1c(OCCCN2CCOCC2)ccc2c3n(c(=NC(=O)c4cnc(N)nc4)nc12)CCN3
viability, T/C [1]: 98.5%
viability, T/C [2]: 94.5%
viability, T/C [3]: 94.1%
viability, T/C [4]: 92.2%
viability, T/C [5]: 67.2%
viability, T/C [6]: 55.1%
viability, T/C [7]: 106%
viability, T/C [8]: 99%
viability, T/C [9]: 96.5%
viability, T/C [10]: 84.7%
viability, T/C [11]: 65.6%
viability, T/C [12]: 60%
viability, T/C [13]: 108%
viability, T/C [14]: 102%
viability, T/C [15]: 87.2%
viability, T/C [16]: 79.5%
viability, T/C [17]: 77%
viability, T/C [18]: 78.2%
viability, T/C [19]: 92.8%
viability, T/C [20]: 77.9%
viability, T/C [21]: 87.6%
viability, T/C [22]: 72.1%
viability, T/C [23]: 75.2%
viability, T/C [24]: 62%
viability, T/C [25]: 68.6%
viability, T/C [26]: 75%
viability, T/C [27]: 70.2%
viability, T/C [28]: 71.4%
viability, T/C [29]: 62.7%
viability, T/C [30]: 59.7%
viability, T/C [31]: 60.4%
viability, T/C [32]: 56%
viability, T/C [33]: 67%
viability, T/C [34]: 63.5%
viability, T/C [35]: 55.8%
viability, T/C [36]: 38.2%

IC50 (second compound 0.00316 µM): > 1 µM
IC50 (second compound 0.01 µM): > 1 µM
IC50 (second compound 0.0316 µM): > 1 µM
IC50 (second compound 0.1 µM): > 1 µM
IC50 (second compound 0.316 µM): > 1 µM
IC50 (second compound 1 µM): > 1 µM
Structure (SMILES): CCN1CCN(Cc2ccc(Nc3ncc(F)c(-c4cc(F)c5nc(C)n(C(C)C)c5c4)n3)nc2)CC1 + COc1c(OCCCN2CCOCC2)ccc2c3n(c(=NC(=O)c4cnc(N)nc4)nc12)CCN3
viability, T/C (second compound 0.00316 µM, first compound 0.00316 µM): 99.3%
viability, T/C (second compound 0.00316 µM, first compound 0.01 µM): 102%
viability, T/C [1]: 97.5%
viability, T/C [2]: 104%
viability, T/C [3]: 100%
viability, T/C [4]: 90.6%
viability, T/C (second compound 0.01 µM, first compound 0.00316 µM): 95.6%
viability, T/C (second compound 0.01 µM, first compound 0.01 µM): 95%
viability, T/C [7]: 93.1%
viability, T/C [8]: 95.2%
viability, T/C [9]: 104%
viability, T/C [10]: 76.4%
viability, T/C (second compound 0.0316 µM, first compound 0.00316 µM): 83.8%
viability, T/C (second compound 0.0316 µM, first compound 0.01 µM): 92.5%
viability, T/C [13]: 99.2%
viability, T/C [14]: 95.1%
viability, T/C [15]: 86.9%
viability, T/C [16]: 64.4%
viability, T/C (second compound 0.1 µM, first compound 0.00316 µM): 86.3%
viability, T/C (second compound 0.1 µM, first compound 0.01 µM): 94.4%
viability, T/C [19]: 84.8%
viability, T/C [20]: 87.2%
viability, T/C [21]: 85.9%
viability, T/C [22]: 63.8%
viability, T/C (second compound 0.316 µM, first compound 0.00316 µM): 74.3%
viability, T/C (second compound 0.316 µM, first compound 0.01 µM): 78.4%
viability, T/C [25]: 72.5%
viability, T/C [26]: 65.3%
viability, T/C [27]: 63%
viability, T/C [28]: 50%
viability, T/C (second compound 1 µM, first compound 0.00316 µM): 62.8%
viability, T/C (second compound 1 µM, first compound 0.01 µM): 58.2%
viability, T/C [31]: 63.6%
viability, T/C [32]: 55.8%
viability, T/C [33]: 56%
viability, T/C [34]: 55.2%

IC50 (second compound 0.00316 µM): > 10 µM
IC50 (second compound 0.01 µM): > 10 µM
IC50 (second compound 0.0316 µM): 2.09 µM
IC50 (second compound 0.1 µM): 2.92 µM
IC50 (second compound 0.316 µM): 1.36 µM
IC50 (second compound 1 µM): 0.888 µM
Structure (SMILES): Cn1ncc(Cl)c1-c1cc(C(=O)NC(CN)Cc2cccc(F)c2)sc1Cl (stereo not drawn) + COc1c(OCCCN2CCOCC2)ccc2c3n(c(=NC(=O)c4cnc(N)nc4)nc12)CCN3
viability, T/C [1]: 86.5%
viability, T/C [2]: 70.6%
viability, T/C [3]: 80.1%
viability, T/C [4]: 67.9%
viability, T/C [5]: 66.1%
viability, T/C [6]: 55.7%
viability, T/C [7]: 93.4%
viability, T/C [8]: 91.5%
viability, T/C [9]: 62.1%
viability, T/C [10]: 58.5%
viability, T/C [11]: 59.4%
viability, T/C [12]: 59.2%
viability, T/C [13]: 82.9%
viability, T/C [14]: 89.4%
viability, T/C [15]: 90.4%
viability, T/C [16]: 59%
viability, T/C [17]: 53%
viability, T/C [18]: 36.9%
viability, T/C [19]: 80%
viability, T/C [20]: 79.4%
viability, T/C [21]: 72.6%
viability, T/C [22]: 56.4%
viability, T/C [23]: 54.3%
viability, T/C [24]: 27.1%
viability, T/C [25]: 69.2%
viability, T/C [26]: 69.4%
viability, T/C [27]: 62.1%
viability, T/C [28]: 54%
viability, T/C [29]: 39.5%
viability, T/C [30]: 22.5%
viability, T/C [31]: 61.4%
viability, T/C [32]: 53.8%
viability, T/C [33]: 67.8%
viability, T/C [34]: 42.4%
viability, T/C [35]: 36.1%
viability, T/C [36]: 16.4%

IC50 (second compound 0.00316 µM): > 10 µM
IC50 (second compound 0.01 µM): > 10 µM
IC50 (second compound 0.0316 µM): 2.78 µM
IC50 (second compound 0.1 µM): 1.02 µM
IC50 (second compound 0.316 µM): 0.612 µM
IC50 (second compound 1 µM): 0.129 µM
Structure (SMILES): Cn1nccc1Nc1nccc(-c2ccn(C(CO)c3ccc(Cl)c(F)c3)c(=O)c2)n1 (stereo not drawn) + COc1c(OCCCN2CCOCC2)ccc2c3n(c(=NC(=O)c4cnc(N)nc4)nc12)CCN3
viability, T/C [1]: 88.1%
viability, T/C [2]: 107%
viability, T/C [3]: 95.3%
viability, T/C [4]: 94.8%
viability, T/C [5]: 77.2%
viability, T/C [6]: 58.3%
viability, T/C [7]: 88.5%
viability, T/C [8]: 88.2%
viability, T/C [9]: 88.4%
viability, T/C [10]: 85.7%
viability, T/C [11]: 70.6%
viability, T/C [12]: 50.5%
viability, T/C [13]: 92.5%
viability, T/C [14]: 89.7%
viability, T/C [15]: 80.2%
viability, T/C [16]: 84.6%
viability, T/C [17]: 45.6%
viability, T/C [18]: 42.7%
viability, T/C [19]: 78%
viability, T/C [20]: 81%
viability, T/C [21]: 64.3%
viability, T/C [22]: 53.6%
viability, T/C [23]: 24%
viability, T/C [24]: 8.76%
viability, T/C [25]: 74.7%
viability, T/C [26]: 78.5%
viability, T/C [27]: 58.8%
viability, T/C [28]: 43.8%
viability, T/C [29]: 7.08%
viability, T/C [30]: 3.11%
viability, T/C [31]: 54.9%
viability, T/C [32]: 51.5%
viability, T/C [33]: 42.6%
viability, T/C [34]: 29.2%
viability, T/C [35]: 10%
viability, T/C [36]: 5.49%
